According to ChEMBL document CHEMBL1201862, “PubChem BioAssay data set” (2004):
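Values below derive from 48-hour exposures of cells grown in 96-well plates, with endpoints linearly interpolated between the two concentrations bracketing the appropriate inhibition level. At the GI50, growth is halved.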 Active and inactive are the calls of the source. No stated cut-off is given here; in the data, active = GI50 up to about 1.1 µM and inactive = higher.

Columns and labels:
Assay in all cases: DTP human tumour cell line panel, 48 h
SF-268 = system: SF-268
HCT-15 = system: HCT-15
LOX IMVI = system: LOX IMVI
NCI-H23 = system: NCI-H23
SK-MEL-28 = system: SK-MEL-28
TK-10 = system: TK-10
UACC-62 = system: UACC-62
NCI/ADR-RES = system: NCI/ADR-RES
CCRF-CEM = system: CCRF-CEM
MDA-MB-231 = system: MDA-MB-231
MOLT-4 = system: MOLT-4
CAKI-1 = system: CAKI-1
EKVX = system: EKVX
UACC-257 = system: UACC-257
COLO 205 = system: COLO 205
RPMI-8226 = system: RPMI-8226
MDA-MB-435 = system: MDA-MB-435
SR = system: SR
NCI-H522 = system: NCI-H522
A498 = system: A498
OVCAR-4 = system: OVCAR-4
PC-3 = system: PC-3
SN12C = system: SN12C
MDA-N = system: MDA-N
U-251 = system: U-251
OVCAR-5 = system: OVCAR-5
Hs-578T = system: Hs-578T
OVCAR-3 = system: OVCAR-3
IGROV-1 = system: IGROV-1
KM12 = system: KM12
M14 = system: M14
SK-OV-3 = system: SK-OV-3
HCT-116 = system: HCT-116
Malme-3M = system: Malme-3M
786-0 = system: 786-0
HOP-62 = system: HOP-62
SF-539 = system: SF-539
UO-31 = system: UO-31
DU-145 = system: DU-145
SF-295 = system: SF-295
MCF7 = system: MCF7
SNB-19 = system: SNB-19
OVCAR-8 = system: OVCAR-8
T47D = system: T47D
NCI-H226 = system: NCI-H226
ACHN = system: ACHN
RXF 393 = system: RXF 393
A549 = system: A549
HOP-92 = system: HOP-92
SK-MEL-2 = system: SK-MEL-2
HCC 2998 = system: HCC 2998
SW-620 = system: SW-620
HT-29 = system: HT-29
SK-MEL-5 = system: SK-MEL-5
SNB-75 = system: SNB-75
K562 = system: K562
HL-60 = system: HL-60
NCI-H460 = system: NCI-H460

`CC1(C)CC[C@]2(C)CC=C3[C@]4(C)CC[C@H]5C(C)(C)C(=O)CC[C@]5(C)[C@H]4CC[C@@]3(C)[C@H]2C1` was tested, and the GI50 (SF-268) was > 100 µM (inactive), the GI50 (HCT-15) was over 100 µM and the GI50 (LOX IMVI) was > 100 µM (inactive). The GI50 (NCI-H23) was > 100 µM (inactive), the GI50 (SK-MEL-28) was > 100 µM (inactive) and the GI50 (TK-10) was > 100 µM (inactive). For the same compound, the GI50 (UACC-62) was > 100 µM (inactive), the GI50 (NCI/ADR-RES) was > 100 µM (inactive) and the GI50 (CCRF-CEM) was > 100 µM (inactive). For the same compound, the GI50 (MDA-MB-231) was > 100 µM (inactive), the GI50 (MOLT-4) was > 100 µM (inactive) and the GI50 (CAKI-1) was > 100 µM (inactive). The GI50 (EKVX) was > 100 µM (inactive), the GI50 (UACC-257) was > 100 µM (inactive) and the GI50 (COLO 205) was > 100 µM (inactive). For the same compound, the GI50 (RPMI-8226) was > 100 µM (inactive), the GI50 (MDA-MB-435) was > 100 µM (inactive) and the GI50 (SR) was > 100 µM (inactive). For the same compound, the GI50 (NCI-H522) was > 100 µM (inactive), the GI50 (A498) was > 100 µM (inactive) and the GI50 (OVCAR-4) was > 100 µM (inactive). For the same compound, the GI50 (PC-3) was > 100 µM (inactive), the GI50 (SN12C) was > 100 µM (inactive) and the GI50 (MDA-N) was > 100 µM (inactive). For the same compound, the GI50 (U-251) was > 100 µM (inactive), the GI50 (OVCAR-5) was > 100 µM (inactive) and the GI50 (Hs-578T) was > 100 µM (inactive). For the same compound, the GI50 (OVCAR-3) was > 100 µM (inactive), the GI50 (IGROV-1) was > 100 µM (inactive) and the GI50 (KM12) was > 100 µM (inactive). The GI50 (M14) was > 100 µM (inactive), the GI50 (SK-OV-3) was > 100 µM (inactive) and the GI50 (HCT-116) was > 100 µM (inactive). The GI50 (Malme-3M) was > 100 µM (inactive), the GI50 (786-0) was > 100 µM (inactive) and the GI50 (HOP-62) was > 100 µM (inactive). The GI50 (SF-539) was > 100 µM (inactive), the GI50 (UO-31) was > 100 µM (inactive) and the GI50 (DU-145) was > 100 µM (inactive). For the same compound, the GI50 (SF-295) was > 100 µM (inactive), the GI50 (MCF7) was > 100 µM (inactive) and the GI50 (SNB-19) was > 100 µM (inactive). For the same compound, the GI50 (OVCAR-8) was > 100 µM (inactive), the GI50 (T47D) was > 100 µM (inactive) and the GI50 (NCI-H226) was > 100 µM (inactive). For the same compound, the GI50 (ACHN) was > 100 µM (inactive), the GI50 (RXF 393) was > 100 µM (inactive) and the GI50 (A549) was > 100 µM (inactive). For the same compound, the GI50 (HOP-92) was > 100 µM (inactive), the GI50 (SK-MEL-2) was > 100 µM (inactive) and the GI50 (HCC 2998) was > 100 µM (inactive). The GI50 (SW-620) was > 100 µM (inactive), the GI50 (HT-29) was > 100 µM (inactive) and the GI50 (SK-MEL-5) was > 100 µM (inactive).

With `CCCCN1/C(=N/Nc2n[nH]c(=O)c3ccccc23)SCC1c1ccc(Cl)cc1` (configuration not stated) the GI50 (SF-268) was 6.64 µM (inactive), the GI50 (HCT-15) was 6.52 µM and the GI50 (NCI-H23) was 1.64 µM (inactive). The GI50 (SNB-75) was 18.6 µM (inactive), the GI50 (SK-MEL-28) was 19.1 µM (inactive) and the GI50 (TK-10) was 33.9 µM (inactive). For the same compound, the GI50 (UACC-62) was 7.31 µM (inactive), the GI50 (NCI/ADR-RES) was 8.79 µM (inactive) and the GI50 (MDA-MB-231) was 20.6 µM (inactive). For the same compound, the GI50 (CAKI-1) was 20.3 µM (inactive), the GI50 (EKVX) was 4.27 µM (inactive) and the GI50 (UACC-257) was 12.2 µM (inactive). The GI50 (COLO 205) was 11.8 µM (inactive), the GI50 (RPMI-8226) was 4.72 µM (inactive) and the GI50 (MDA-MB-435) was 11 µM (inactive). The GI50 (K562) was 8.17 µM (inactive), the GI50 (SR) was 4.73 µM (inactive) and the GI50 (NCI-H522) was 11.8 µM (inactive). The GI50 (A498) was 3.47 µM (inactive), the GI50 (OVCAR-4) was 53.3 µM (inactive) and the GI50 (PC-3) was 14 µM (inactive). For the same compound, the GI50 (SN12C) was 24.6 µM (inactive), the GI50 (U-251) was 4.92 µM (inactive) and the GI50 (OVCAR-5) was 29.1 µM (inactive). The GI50 (Hs-578T) was 15.1 µM (inactive), the GI50 (OVCAR-3) was 15 µM (inactive) and the GI50 (IGROV-1) was 6.43 µM (inactive). The GI50 (KM12) was 5.01 µM (inactive), the GI50 (M14) was 5.55 µM (inactive) and the GI50 (SK-OV-3) was 21.8 µM (inactive). The GI50 (HCT-116) was 13.9 µM (inactive), the GI50 (Malme-3M) was 22 µM (inactive) and the GI50 (786-0) was 20 µM (inactive). The GI50 (HL-60) was 14.9 µM (inactive), the GI50 (HOP-62) was 6.24 µM (inactive) and the GI50 (SF-539) was 12.7 µM (inactive). For the same compound, the GI50 (UO-31) was 18.7 µM (inactive), the GI50 (DU-145) was 22.2 µM (inactive) and the GI50 (SF-295) was 6.53 µM (inactive). The GI50 (MCF7) was 10.6 µM (inactive), the GI50 (SNB-19) was 10.6 µM (inactive) and the GI50 (OVCAR-8) was 15.4 µM (inactive). The GI50 (NCI-H460) was 3.59 µM (inactive), the GI50 (T47D) was 4.29 µM (inactive) and the GI50 (NCI-H226) was 10.4 µM (inactive). The GI50 (ACHN) was 25.3 µM (inactive), the GI50 (RXF 393) was 20.1 µM (inactive) and the GI50 (A549) was 5.26 µM (inactive). The GI50 (HOP-92) was 57.9 µM (inactive), the GI50 (SK-MEL-2) was 20.9 µM (inactive) and the GI50 (SW-620) was 19.8 µM (inactive). For the same compound, the GI50 (HT-29) was 24.2 µM (inactive) and the GI50 (SK-MEL-5) was 3.55 µM (inactive).
